Experimental data from article PMC7447632, “Highly functionalized β-lactams and 2-ketopiperazines as TRPM8 antagonists with antiallodynic activity” (Scientific Reports, 2020).
“Also recorded” adds a separate entry of the source.

Assays:
[1] = system: MDA-MB-231 (breast adenocarcinoma); assay: SRB cytotoxicity assay, MDA-MB-231; type: cell-based; settings: at 10 µg/mL
[2] = system: oxaliplatin-induced cold allodynia; assay: Oxaliplatin-induced cold allodynia in mice (acetone test); type: in vivo; settings: for Cold allodynia (cold-induced paw licking, acetone test): oxaliplatin-treated male mice
Source text: Several chemotherapeutic agents in first clinical line induce peripheral neuropathies (known as CIPN), affecting million patients worldwide and limiting the dose administered to them, as well as the quality of life of many survivors. In oxaliplatin CIPN, the increased sensitivity to cold has been correlated to an augmented expression of TRPM8 channels, among others[4]–[6],[57]. In good correlation, there are recent experimental evidences describing that TRPM8 antagonists are able to decrease oxaliplatin-induced allodynia and cold hypersensitivity[34],[58]. According to these discoveries, we decided to explore the effects of β-lactam 24a in an in vivo model of oxaliplatin CIPN, using acetone assay for monitoring cold allodynia. In male mice, the injection of oxaliplatin on days 1, 3 and 5 at a 6 mg/kg dose produces peripheral cold allodynia.
Figure 4 Effects of compound 24a on the oxaliplatin-induced cold allodynia (acetone test). Male mice were treated with oxaliplatin (6 mg/Kg, ip) or vehicle on days 1, 3 and 5. Then, compound 24a (1 µg/ipl, A or 3 µg/ipl, B) was administered to the oxaliplatin treated animals, and the time-course of cold allodynia was measured. Data are given ± SME (n = 5). **P < 0.05; ***P < 0.001; ****P < 0.0001.
Male C57-mice (≈30 g) (Harlam, Holland) were used for the study. All experiments were approved by the Institutional Animal and Ethical Committee of the Universidad Miguel Hernandez where experiments were conducted and they were in accordance with the guidelines of the Economic European Community and the Committee for Research and Ethical Issues of the International Association for the Study of Pain. All parts of the study concerning animal care were performed under the control of veterinarians.
As previously described, oxaliplatin (Tocris) was dissolved in water with gentle warming and was […] injected on days 1, 3 and 5 at a 6 mg/kg dose. The day 7 after administration, experiments were performed. Together with Oxaliplatin injection, saline and a 5% Mannitol solution were intraperitoneally injected to prevent kidney damage and dehydration. The compound 24a stock was prepared in DMSO (Sigma-Aldrich) and diluted in saline for injections. Compound at different doses (1 to 3 μg) was injected into the plantar surface (25 μL) of the right hind paw of mice. Cold chemical thermal sensitivity was assessed using acetone drop method. Mice were placed in a metal mesh cage and allowed to habituate for approximately 30 min in order to acclimatize them. […] Cold chemical sensitive reaction with respect to paw licking was recorded as a positive response (nociceptive pain response). The responses were measured for 20-s with a digital stopwatch. For each measurement, the paw was sampled twice and the mean was calculated. […]

C[C@@H]1C(=O)N(C[C@H](Cc2ccccc2)NC(=O)OCc2ccccc2)[C@]1(Cc1ccccc1)C(=O)OCc1ccccc1 [Compound 24a, 4S-Benzyl-4-benzyloxycarbonyl-3S-methyl-1-[(2′S-benzyloxycarbonylamino-3′-phenyl)prop-1′-yl]-2-oxoazetidine]
Cytotoxic activity against MDA-MB-231 [1]: no activity
Cold allodynia (cold-induced paw licking, acetone test) ([2]; 1 μg intraplantar): attenuates the cold-induced paw licking in a significant manner
Cold allodynia (cold-induced paw licking, acetone test) ([2]; 3 µg intraplantar): clearly increased at 15 min, and firmly maintained up to 60 min
Time of maximum antiallodynic activity ([2]; intraplantar, after administration): 30 to 60 min
Antiallodynic effect in oxaliplatin-induced peripheral neuropathy ([2]; mice, dose not stated): significantly reduced cold allodynia; also recorded: significant antiallodynic effects
